Laboratory results taken from patent publication US6180650A, “Heterosubstituted pyridine derivatives as PDE 4 inhibitors” (Merck Frosst Canada & Co., priority 2000, dated 2001).

Target: T1, GST-Met 248 PDE 4a (Homo sapiens, UniProt P27815)
T1 construct: phosphodiesterase IVa (met-248); made in house; host or cells: baculovirus/Sf-9
Experiment: SPA based PDE activity assay (IC50, purified GST fusion protein of human recombinant phosphodiesterase IVa (met-248), baculovirus/Sf-9)
Type: biochemical
Conditions: 100 nM cAMP, 30° C., pH 7.5, 10 min; approximated by non-linear regression of a ten point titration
Procedure: SPA BASED PDE ACTIVITY ASSAY PROTOCOL Compounds which inhibit the hydrolysis of cAMP to AMP by the type-IV cAMP-specific phosphodiesterases were screened in 96-well plate format as follows: In a 96 well-plate at 30° C. was added the test compound (dissolved in 2 μl DMSO), […] of substrate buffer containing [2,8-^3 H] adenosine 3',5'-cyclic phosphate (cAMP, 100 nM to 50 μM), 10 mM MgCl2, 1 mM EDTA, 50 mM Tris, pH 7.5. The reaction was initiated by the addition of […] of human recombinant PDE-IV (the amount was controlled so that ~10% product was formed in 10 min.). The reaction was stopped after 10 min. by the addition of 1 mg of PDE-SPA beads (Amersham). The product AMP generated was quantified on a Microbeta 96-well plate counter. The signal in the absence of enzyme was defined as the background. 100% activity was defined as the signal detected in the presence of enzyme and DMSO with the background subtracted. Percentage of inhibition was calculated accordingly. IC50 value was approximated with a non-linear regression fit using the standard 4-parameter/multiple binding sites equation from a ten point titration. IC50 values shown in Table 7 were determined with 100 nM cAMP using the purified GST fusion protein of the human recombinant phosphodiesterase IVa (met-248) produced from a baculovirus/Sf-9 expression system.

T1 sequence (P27815 248-886 limits assumed): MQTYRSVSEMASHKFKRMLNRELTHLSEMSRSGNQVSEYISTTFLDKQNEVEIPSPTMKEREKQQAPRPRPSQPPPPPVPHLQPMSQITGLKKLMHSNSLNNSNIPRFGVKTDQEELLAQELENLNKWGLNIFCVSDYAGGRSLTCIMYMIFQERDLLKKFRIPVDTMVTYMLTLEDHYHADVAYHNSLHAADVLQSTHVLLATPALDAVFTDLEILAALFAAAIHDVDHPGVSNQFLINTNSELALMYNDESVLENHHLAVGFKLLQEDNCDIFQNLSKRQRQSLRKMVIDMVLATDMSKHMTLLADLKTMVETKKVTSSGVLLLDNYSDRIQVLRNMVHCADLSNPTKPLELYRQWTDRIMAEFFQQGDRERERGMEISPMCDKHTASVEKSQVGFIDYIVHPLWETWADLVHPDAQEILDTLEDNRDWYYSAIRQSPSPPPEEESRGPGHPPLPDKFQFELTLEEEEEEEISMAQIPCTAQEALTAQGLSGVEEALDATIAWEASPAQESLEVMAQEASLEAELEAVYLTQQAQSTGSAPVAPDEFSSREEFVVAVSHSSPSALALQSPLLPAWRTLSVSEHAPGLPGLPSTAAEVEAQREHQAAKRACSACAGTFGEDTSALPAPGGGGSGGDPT

`[O-][n+]1ccc(CC(c2ccc(OCc3ccc(F)c(F)c3)nc2)c2ccc(OC(F)F)c(OC(F)F)c2)cc1` (racemic) [Example 16, 4-{2-[3,4-Bis(difluoromethoxy)phenyl]-2-[6-(3,4-difluorobenzyloxy)3-pyridyl]ethyl}pyridine-N-oxide] gave an IC50 of 1.43 nM.
`[O-][n+]1ccc(CC(c2ccc(Oc3ccc(OC(F)(F)F)cc3)nc2)c2ccc(OC(F)F)c(OC(F)F)c2)cc1` (racemic) [Example 1, 4-{2-[3,4-Bis(difluoromethoxy)phenyl]-2-{6-[4-(trifluoromethoxy)phenoxy]3-pyridyl}ethyl}pyridine-N-oxide] was tested, and the IC50 was 2.85 nM.
`CC(C)(Cc1ccccc1)Oc1ccc(C(Cc2cc[n+]([O-])cc2)c2ccc(OC(F)F)c(OC(F)F)c2)cn1` (racemic) [Example 28, 4-{2-[3,4-Bis(difluoromethoxy)phenyl]-2-[6-(1,1-dimethyl-2-phenylethoxy)3-pyridyl]ethyl}pyridine-N-oxide] showed an IC50 of 0.2 nM.
With `CC(C)(COc1ccc(C(Cc2cc[n+]([O-])cc2)c2ccc(OC(F)F)c(OC(F)F)c2)cn1)c1ccc(F)cc1` (racemic) [Example 23, 4-{2-[3,4-Bis(difluoromethoxy)phenyl]-2-{6-[2-methyl-2-(4-fluorophenyl)propyloxy]3-pyridyl}ethyl}pyridine-N-oxide] the IC50 was 3.2 nM.
